From EPA's ToxValDB 9.5 (doi:10.2903/j.efsa.2016.4419) come the findings set out here.

Where only a bound is given, the exact number is not on record here.

For data set [1], the system named is Rattus norvegicus. The following applies: for LD50: acute, mortality.
The test system of data set [2] is Tagia sp.
The subject of data set [3] is Folsomia candida. The following applies: chronic/long-term; duration: 14 days; reproduction.
Data set [4] concerns Lepomis macrochirus. The note with it: acute; duration: 96 hours; mortality.
Data set [5] concerns Mus musculus. The following applies: reproduction developmental; organ weight.
Data set [6] deals with Daphnia pulex. The note with it: chronic/long-term; duration: 21 days; reproduction.
The subject of data set [7] is Oncorhynchus mykiss. The note with it: acute; duration: 96 hours; mortality.
Data set [8] has as its system Apis mellifera. The note with it: acute, mortality.
The test system of data set [9] is Anas platyrhynchos.
Data set [10] concerns Pimephales promelas. The following applies: chronic/long-term; duration: 36 days; clinical signs.
The subject of data set [11] is Colinus virginianus. The note with it: acute, oral, mortality.

The compound `CS(=O)(=O)c1ccc(C(=O)O)c(N)c1` [2-Amino-4-(methylsulfonyl)benzoic acid] gave an LD50 in data set [1] greater than 5000 mg/kg.

For the compound `CS(=O)(=O)c1ccc(C(=O)C2C(=O)CCCC2=O)c([N+](=O)[O-])c1` [Mesotrione], the LC50 in [2] (acute, mortality) was greater than 2000 mg/kg; in data set [4] it was greater than 120 µg/mL; in data set [7], greater than 120 µg/mL; in [9] (short-term, oral, feed, mortality), greater than 5200 mg/kg; in data set [11] (diet) it was greater than 5200 mg/kg. The NOEC in data set [2] (chronic/long-term, reproduction) stood at 10.8 mg/kg; in data set [3] it was 50.5 mg/kg; in [6], 180 mg/L; in data set [10] it was 12.5 mg/L. Moreover, the NOAEL (commonly the highest tested level that showed no adverse finding) in data set [5] stood at 2 mg/kg-day. In addition, the LD50 in data set [8] (dermal) is 52.5 µg/piece; in [8] (oral, unspecified) it was greater than 11 µg/piece; in data set [1] (oral), greater than 5000 mg/kg; in data set [11], greater than 2000 mg/kg. Further, the NOEL in data set [9] (reproductive) is 20.6 mg/kg-day; in data set [1] (reproduction developmental, organ weight) it was 0.3 mg/kg-day.
